Assay results from patent publication US10457703B2, “Bile acid derivatives as FXR/TGR5 agonists and methods of use thereof” (ENANTA PHARMACEUTICALS, INC., priority 2015, dated 2019).

Biological target: human FXR (NR1H4) (Homo sapiens (Human), UniProt Q96RI1)
Assay: Human FXR (NR1H4) Assay (Gal4 promoter driven luciferase reporter, Indigo Bioscience kit);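 for Efficacy (%): 100% equals the efficacy of CDCA; efficacy normalized to CDCA set as 100%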
Type: cell-based
Settings: for EC50: Human FXR (NR1H4) Assay, potency ranges; for Emax: read-out: Efficacy (%)
Method in brief: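 CHO reporter cells expressing human FXR with an FXR-responsive luciferase reporter, treated with compound doses at 0.2% DMSO. Incubation lasted 22 h at 37 °C before luciferase detection reagent was added. Luminescence was then read.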

human FXR (NR1H4), sequence (Q96RI1 whole entry, the tested form may be a part): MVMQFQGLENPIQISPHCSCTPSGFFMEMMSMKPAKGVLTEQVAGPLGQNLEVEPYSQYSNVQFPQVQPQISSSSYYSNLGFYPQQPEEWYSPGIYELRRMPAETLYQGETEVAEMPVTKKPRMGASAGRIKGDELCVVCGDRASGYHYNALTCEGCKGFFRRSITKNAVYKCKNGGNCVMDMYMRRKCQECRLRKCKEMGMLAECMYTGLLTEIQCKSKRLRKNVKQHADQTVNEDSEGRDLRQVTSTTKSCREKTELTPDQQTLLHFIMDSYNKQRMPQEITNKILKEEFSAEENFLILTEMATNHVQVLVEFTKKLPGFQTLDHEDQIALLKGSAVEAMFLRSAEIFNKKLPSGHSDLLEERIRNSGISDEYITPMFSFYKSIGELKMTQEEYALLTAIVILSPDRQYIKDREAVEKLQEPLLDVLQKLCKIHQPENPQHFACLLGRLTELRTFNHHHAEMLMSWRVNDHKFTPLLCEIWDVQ

Row | Structure (SMILES) | EC50 [nM] | Emax [%]
1 | CC[C@H]1[C@@H](O)[C@@H]2[C@H](CC[C@]3(C)[C@@H]([C@H](C)COC(=O)NS(=O)(=O)c4ccc(-c5ccc(F)cc5)cc4)CC[C@@H]23)[C@@]2(C)CC[C@@H](O)C[C@@H]12 [Example 28] | < 100 | 194
2 | CC[C@H]1[C@@H](O)[C@@H]2[C@H](CC[C@]3(C)[C@@H]([C@H](C)CCOC(=O)N4CCCCC4CO)CC[C@@H]23)[C@@]2(C)CC[C@@H](O)C[C@@H]12 (some centres unmarked) [Example 180] | 100 to 1000 | 390
3 | CC[C@H]1[C@@H](O)[C@@H]2[C@H](CC[C@]3(C)[C@@H]([C@H](C)CCOC(=O)NS(=O)(=O)c4ccc5c(c4)CCCC5)CC[C@@H]23)[C@@]2(C)CC[C@@H](O)C[C@@H]12 [Example 89] | < 100 | 278
4 | CC[C@H]1[C@@H](O)[C@@H]2[C@H](CC[C@]3(C)[C@@H]([C@H](C)CCOC(=O)N4CC(=O)N(Cc5ccccc5)S4(=O)=O)CC[C@@H]23)[C@@]2(C)CC[C@@H](O)C[C@@H]12 [Example 109] | 1000 to 10000 | 142
5 | CC[C@H]1[C@@H](O)[C@@H]2[C@H](CC[C@]3(C)[C@@H]([C@H](C)CCOC(=O)N4CC(=O)NS4(=O)=O)CC[C@@H]23)[C@@]2(C)CC[C@@H](O)C[C@@H]12 [Example 110] | 1000 to 10000 | 28
6 | CCOC(=O)CNC(=O)OCC[C@@H](C)[C@H]1CC[C@H]2[C@@H]3[C@H](O)[C@H](CC)[C@@H]4C[C@H](O)CC[C@]4(C)[C@H]3CC[C@]12C [Example 156] | 100 to 1000 | 193
7 | CC[C@H]1[C@@H](O)[C@@H]2[C@H](CC[C@]3(C)[C@@H]([C@H](C)CCOC(=O)NCCc4c[nH]c5ccccc45)CC[C@@H]23)[C@@]2(C)CC[C@@H](O)C[C@@H]12 [Example 141] | 100 to 1000 | 293
8 | CC[C@H]1[C@@H](O)[C@@H]2[C@H](CC[C@]3(C)[C@@H]([C@H](C)CCOC(=O)N[C@H]4CCCC[C@@H]4O)CC[C@@H]23)[C@@]2(C)CC[C@@H](O)C[C@@H]12 [Example 168] | 100 to 1000 | 302
9 | CC[C@H]1[C@@H](O)[C@@H]2[C@H](CC[C@]3(C)[C@@H]([C@H](C)CCOC(=O)NCCN4CCOCC4)CC[C@@H]23)[C@@]2(C)CC[C@@H](O)C[C@@H]12 [Example 151] | 100 to 1000 | 253
10 | CC[C@H]1[C@@H](O)[C@@H]2[C@H](CC[C@]3(C)[C@@H]([C@H](C)CCOC(=O)N4CCC(O)CC4)CC[C@@H]23)[C@@]2(C)CC[C@@H](O)C[C@@H]12 [Example 169] | 100 to 1000 | 257
11 | CC[C@H]1[C@@H](O)[C@@H]2[C@H](CC[C@]3(C)[C@@H]([C@H](C)COC(=O)NS(=O)(=O)c4ccc(-c5ccc(C(F)(F)F)cc5)s4)CC[C@@H]23)[C@@]2(C)CC[C@@H](O)C[C@@H]12 [Example 27] | 100 to 1000 | 173
12 | CC[C@H]1[C@@H](O)[C@@H]2[C@H](CC[C@]3(C)[C@@H]([C@H](C)CCOC(=O)NS(=O)(=O)c4ccccc4Cl)CC[C@@H]23)[C@@]2(C)CC[C@@H](O)C[C@@H]12 [Example 76] | 100 to 1000 | 234
13 | CC[C@H]1[C@@H](O)[C@@H]2[C@H](CC[C@]3(C)[C@@H]([C@H](C)CCOC(=O)NS(=O)(=O)c4ccc(C(C)(C)C)cc4)CC[C@@H]23)[C@@]2(C)CC[C@@H](O)C[C@@H]12 [Example 45] | < 100 | 235
14 | CC[C@H]1[C@@H](O)[C@@H]2[C@H](CC[C@]3(C)[C@@H]([C@H](C)CCOC(=O)NS(=O)(=O)C4CCC4)CC[C@@H]23)[C@@]2(C)CC[C@@H](O)C[C@@H]12 [Example 104-i] | < 100 | 314
15 | CC[C@H]1[C@@H](O)[C@@H]2[C@H](CC[C@]3(C)[C@@H]([C@H](C)CCOC(=O)NS(=O)(=O)c4ccc(OC(C)C)cc4)CC[C@@H]23)[C@@]2(C)CC[C@@H](O)C[C@@H]12 [Example 100] | < 100 | 316
16 | CC[C@H]1[C@@H](O)[C@@H]2[C@H](CC[C@]3(C)[C@@H]([C@H](C)CCOC(=O)NS(=O)(=O)c4ccc(-c5ccccc5)cc4)CC[C@@H]23)[C@@]2(C)CC[C@@H](O)C[C@@H]12 [Example 68] | 100 to 1000 | 286
17 | CC[C@H]1[C@@H](O)[C@@H]2[C@H](CC[C@]3(C)[C@@H]([C@H](C)CCOC(=O)N[C@@H]4CCC[C@H]4O)CC[C@@H]23)[C@@]2(C)CC[C@@H](O)C[C@@H]12 [Example 207] | 100 to 1000 | 188
18 | CC[C@H]1[C@@H](O)[C@@H]2[C@H](CC[C@]3(C)[C@@H]([C@H](C)COC(=O)NS(=O)(=O)c4ccc(-c5ccc(OC(F)(F)F)cc5)cc4)CC[C@@H]23)[C@@]2(C)CC[C@@H](O)C[C@@H]12 [Example 33] | < 100 | 266
19 | CC[C@H]1[C@@H](O)[C@@H]2[C@H](CC[C@]3(C)[C@@H]([C@H](C)CCOC(=O)NC(C)CO)CC[C@@H]23)[C@@]2(C)CC[C@@H](O)C[C@@H]12 (some centres unmarked) [Example 139] | 100 to 1000 | 310

Row | Structure (SMILES) | EC50 [nM] | Emax [%]
20 | CC[C@H]1[C@@H](O)[C@@H]2[C@H](CC[C@]3(C)[C@@H]([C@H](C)COC(=O)NS(=O)(=O)c4cccc(-c5ncco5)c4)CC[C@@H]23)[C@@]2(C)CC[C@@H](O)C[C@@H]12 [Example 44-i] | 100 to 1000 | 210
21 | CC[C@H]1[C@@H](O)[C@@H]2[C@H](CC[C@]3(C)[C@@H]([C@H](C)CCOC(=O)NCC(C)C)CC[C@@H]23)[C@@]2(C)CC[C@@H](O)C[C@@H]12 [Example 137] | 100 to 1000 | 270
22 | CC[C@H]1[C@@H](O)[C@@H]2[C@H](CC[C@]3(C)[C@@H]([C@H](C)COC(=O)NS(=O)(=O)c4ccc(N5CCCC5)nc4)CC[C@@H]23)[C@@]2(C)CC[C@@H](O)C[C@@H]12 [Example 44-b] | < 100 | 216
23 | CC[C@H]1[C@@H](O)[C@@H]2[C@H](CC[C@]3(C)[C@@H]([C@H](C)CCOC(=O)NS(=O)(=O)c4cccc(F)c4)CC[C@@H]23)[C@@]2(C)CC[C@@H](O)C[C@@H]12 [Example 66] | 100 to 1000 | 320
24 | CC[C@H]1[C@@H](O)[C@@H]2[C@H](CC[C@]3(C)[C@@H]([C@H](C)CCCOC(=O)N4CCCC4)CC[C@@H]23)[C@@]2(C)CC[C@@H](O)C[C@@H]12 [Example 131] | 100 to 1000 | 202
25 | CC[C@H]1[C@@H](O)[C@@H]2[C@H](CC[C@]3(C)[C@@H]([C@H](C)CCOC(=O)NS(=O)(=O)c4cccc(C(C)(C)C)c4)CC[C@@H]23)[C@@]2(C)CC[C@@H](O)C[C@@H]12 [Example 54] | 100 to 1000 | 290
26 | CC[C@H]1[C@@H](O)[C@@H]2[C@H](CC[C@]3(C)[C@@H]([C@H](C)CCCOC(=O)NS(C)(=O)=O)CC[C@@H]23)[C@@]2(C)CC[C@@H](O)C[C@@H]12 [Example 113] | 1000 to 10000 | 130
27 | CC[C@H]1[C@@H](O)[C@@H]2[C@H](CC[C@]3(C)[C@@H]([C@H](C)COC(=O)NS(=O)(=O)c4ccc(C5CCCCC5)cc4)CC[C@@H]23)[C@@]2(C)CC[C@@H](O)C[C@@H]12 [Example 11] | < 100 | 224
28 | CC[C@H]1[C@@H](O)[C@@H]2[C@H](CC[C@]3(C)[C@@H]([C@H](C)COC(=O)NS(=O)(=O)c4ccc(-n5cnnn5)nc4)CC[C@@H]23)[C@@]2(C)CC[C@@H](O)C[C@@H]12 [Example 44-d] | 100 to 1000 | 195
29 | CC[C@H]1[C@@H](O)[C@@H]2[C@H](CC[C@]3(C)[C@@H]([C@H](C)CCOC(=O)N4CCCC4)CC[C@@H]23)[C@@]2(C)CC[C@@H](O)C[C@@H]12 [Example 147] | < 100 | 228
30 | CC[C@H]1[C@@H](O)[C@@H]2[C@H](CC[C@]3(C)[C@@H]([C@H](C)CCOC(=O)NS(=O)(=O)C(F)(F)F)CC[C@@H]23)[C@@]2(C)CC[C@@H](O)C[C@@H]12 [Example 108] | 1000 to 10000 | 309
31 | CC[C@H]1[C@@H](O)[C@@H]2[C@H](CC[C@]3(C)[C@@H]([C@H](C)CCOC(=O)N4CCC(CO)(CCl)CC4)CC[C@@H]23)[C@@]2(C)CC[C@@H](O)C[C@@H]12 [Example 183] | < 100 | 451
32 | CC[C@H]1[C@@H](O)[C@@H]2[C@H](CC[C@]3(C)[C@@H]([C@H](C)CCOC(=O)N[C@H](C(=O)O)C(C)C)CC[C@@H]23)[C@@]2(C)CC[C@@H](O)C[C@@H]12 [Example 155] | 100 to 1000 | 278
33 | CC[C@H]1[C@@H](O)[C@@H]2[C@H](CC[C@]3(C)[C@@H]([C@H](C)CCOC(=O)NS(=O)(=O)N4CCCCC4)CC[C@@H]23)[C@@]2(C)CC[C@@H](O)C[C@@H]12 [Example 69] | < 100 | 368
34 | CC[C@H]1[C@@H](O)[C@@H]2[C@H](CC[C@]3(C)[C@@H]([C@H](C)CCOC(=O)NC4CCS(=O)(=O)CC4)CC[C@@H]23)[C@@]2(C)CC[C@@H](O)C[C@@H]12 [Example 167] | 100 to 1000 | 321
35 | CC[C@H]1[C@@H](O)[C@@H]2[C@H](CC[C@]3(C)[C@@H]([C@H](C)COC(=O)N4CCC4)CC[C@@H]23)[C@@]2(C)CC[C@@H](O)C[C@@H]12 [Example 200] | 1000 to 10000 | 7
36 | CC[C@H]1[C@@H](O)[C@@H]2[C@H](CC[C@]3(C)[C@@H]([C@H](C)CCOC(=O)N4CCCCC4)CC[C@@H]23)[C@@]2(C)CC[C@@H](O)C[C@@H]12 [Example 146] | < 100 | 223
37 | CC[C@H]1[C@@H](O)[C@@H]2[C@H](CC[C@]3(C)[C@@H]([C@H](C)CCOC(=O)NS(=O)(=O)c4ccccc4)CC[C@@H]23)[C@@]2(C)CC[C@@H](O)C[C@@H]12 [Example 60] | < 100 | 309
